# Assay: Inhibition of SARS-CoV-1 RdRp-mediated viral replication
compound,measurement,value
CN(C)CCCSc1ccccc1NC(=O)/C=C/c1ccccc1 [CINANSERIN],IC50,34 µM

# Reference: BindingDB's records for doi:10.1021/acs.jmedchem.2c01229 (University of Siena, 2023)
